system: MCF-7 cells; experiment: In vitro cell proliferation assay (WST assay); type: cell-based; conditions: Homo sapiens, MCF7, 72 h, total incubation time 72 h, viable cells by WST-1 reagent
Protocol: In vitro Cell Proliferation Assay (WST Assay)
MCF-7 cells were seeded in 96-well plates at 3×10^3 cells/well in 100 μL of culture medium, 8 wells were left empty for media only controls.
After 24 h the compound titrations were performed, in a separate dilution plate, by serially diluting the compounds of general formula (I) in culture medium. A 100 μL of each dilution was added to the plated cells, this was done in triplicate, and controls (e.g. DMSO and blanks) were included. The plates were incubated for 24 h at 37° C. in a CO2 incubator. The compound titrations were repeated in a separate dilution plate after 24 h. The media plus compound from the assay plates were then aspirated. A 100 μL of media was then added to all wells, followed by 100 μL of each compound dilution. The plates were incubated for a further 48 h at 37° C. in a CO2 incubator (total incubation time 72 h). The number of viable cells was then assessed using Cell Proliferation Reagent WST-1. 10 μL of WST-1 reagent added to each well and incubated for one to four hours at 37° C. in CO2 incubator. The absorbance was measured (450 nm/690 nm).
The activity of compounds of general formula (I) in reducing the number of viable cells was calculated as:
% activity=[(S^c−B)/(S^o−B)]×100
S^c denotes signal measured in the presence of test compound, S^o denotes signal detected in the absence of compound, and B denotes background signal, measured in blank wells containing medium only. Analyse data using GraphPad Prism.

Point of comparison: `Cc1ccc2c(c1F)NC(=O)C2(c1ccc(O)cc1)C1CCCCCC1` (stereo not drawn) [Compound 1034, 3-cycloheptyl-7-fluoro-3-(4-hydroxyphenyl)-6-methylindolin-2-one], IC50 9.1 nM. Against it:
- COc1ccc2c(c1C)NC(=O)C2(c1ccc(O)cc1)C1CCCCC1 (stereo not drawn) [Compound 1046, 3-cyclohexyl-3-(4-hydroxyphenyl)-6-methoxy-7-methylindolin-2-one] — within 1.5-fold, 12.6 nM
- O=C1Nc2c(ccc(F)c2F)C1(c1ccc(O)cc1)c1ccc2ccccc2c1 (stereo not drawn) [Compound 1033, 6,7-difluoro-3-(4-hydroxyphenyl)-3-(naphthalene-2-yl)indolin-2-one] — within 1.5-fold, 10.2 nM
- Cc1ccc(C2(c3ccc(O)cc3)C(=O)Nc3c2ccc(F)c3F)cc1F (stereo not drawn) [Compound 1023, 6,7-difluoro-3-(3-fluor-4-methylphenyl)-3-(4-hydroxyphenyl)indolin-2-one] — 2.3-fold lower, 4 nM
- O=C1Nc2c(Br)cccc2C1(c1ccc(O)cc1)C1CCCCC1 (stereo not drawn) [Compound 1062, 7-bromo-3-cyclohexyl-3-(4-hydroxyphenyl)indolin-2-one] — within 1.5-fold, 6.8 nM
- O=C1Nc2c(ccc(F)c2F)C1(c1ccc(O)cc1)c1ccc(O)cc1 [Reference compound, 6,7-Difluoro-3,3-bis-(4-hydroxy-phenyl)-1,3-dihydro-indol-2-one, reference compound] — within 1.5-fold, 8.4 nM
- Cc1ccc2c(c1Br)NC(=O)C2(c1ccc(O)cc1)C1CCCCC1 (stereo not drawn) [Compound 1056, 7-bromo-3-cyclohexyl-3-(4-hydroxyphenyl)-6-methylindolin-2-one] — within 1.5-fold, 10.5 nM
- O=C1Nc2c(C(F)(F)F)cccc2C1(c1ccc(O)cc1)C1CCCCC1 (stereo not drawn) [Compound 1021, 3-cyclohexyl-3-(4-hydroxyphenyl)-7-(trifluoromethyl)indolin-2-one] — 1.9-fold higher, 17.5 nM
- Cc1cccc2c1NC(=O)C2(c1ccc(O)cc1)C1CCCCC1 (stereo not drawn) [Compound 1059, 3-cyclohexyl-3-(4-hydroxyphenyl)-7-methylindolin-2-one] — 3.6-fold higher, 32.9 nM
- COc1cc(C)c2c(c1)C(c1ccc(O)cc1)(C1CCCCC1)C(=O)N2 (stereo not drawn) [Compound 1070] — within 1.5-fold, 10 nM
- COc1ccc2c(c1C)NC(=O)C2(c1ccc(O)cc1)C1CCCCCC1 (stereo not drawn) [Compound 1087, 3-cycloheptyl-3-(4-hydroxyphenyl)-6-methoxy-7-methylindolin-2-one] — 1.9-fold lower, 4.7 nM
- Cc1c(F)ccc2c1NC(=O)C2(c1ccc(O)cc1)C1CCCCC1 (stereo not drawn) [Compound 1039, 3-cyclohexyl-6-fluoro-3-(4-hydroxyphenyl)-7-methylindolin-2-one] — 1.6-fold lower, 5.7 nM
- O=C1Nc2c(ccc(F)c2F)C1(c1ccncc1)c1ccc(O)cc1 (stereo not drawn) [Compound 1006, 6,7-difluoro-3-(4-hydroxyphenyl)-3-(pyridin-4-yl)indolin-2-one] — 3.8-fold higher, 34.5 nM
- Cc1ccc2c(c1Cl)NC(=O)C2(c1ccc(O)cc1)C1CCCCCC1 (stereo not drawn) [Compound 1053, 7-chloro-3-cycloheptyl-3-(4-hydroxyphenyl)-6-methylindolin-2-one] — 2.6-fold lower, 3.5 nM
- Cc1ccc2c(c1C)NC(=O)C2(c1ccc(O)cc1)C1CCCCCC1 (stereo not drawn) [Compound 1043, 3-cycloheptyl-3-(4-hydroxyphenyl)-6,7-dimethylindolin-2-one] — 2.1-fold higher, 19.1 nM
- O=C1Nc2c(ccc(F)c2F)C1(c1ccc(O)cc1)c1ccc(F)c(F)c1 (stereo not drawn) [Compound 1022, 3-(3,4-difluorophenyl)-6,7-difluoro-3-(4-hydroxyphenyl)indolin-2-one] — 1.7-fold lower, 5.2 nM
- O=C1Nc2c(ccc(F)c2F)C1(c1ccc(O)cc1)C1CCCCCC1 (stereo not drawn) [Compound 1018, 3-cycloheptyl-6,7-difluoro-3-(4-hydroxyphenyl)indolin-2-one] — 2.7-fold lower, 3.4 nM
- O=C1Nc2c(ccc(F)c2F)C1(c1ccc(O)cc1)C1CCCCC1 (stereo not drawn) [Compound 1010, 3-cyclohexyl-6,7-difluoro-3-(4-hydroxyphenyl)indolin-2-one] — within 1.5-fold, 7.3 nM
- Cc1ccc2c(c1C)NC(=O)C2(c1ccc(O)cc1)C1CCCCC1 (stereo not drawn) [Compound 1025, 3-cyclohexyl-3-(4-hydroxyphenyl)-6,7-dimethylindolin-2-one] — 2.8-fold higher, 25.9 nM

same assay, conditions: total incubation time 72 h, viable cells by WST-1 reagent

Point of comparison: `O=C1Nc2c(ccc(F)c2F)C1(c1ccc(O)cc1)C1CCCCC1` (single isomer, unassigned) [Compound 1027, 3-cyclohexyl-6,7-difluoro-3-(4-hydroxyphenyl)indolin-2-one], IC50 3.9 nM. Against it:
- O=C1Nc2c(ccc(F)c2F)C1(c1ccc(O)cc1)C1CCCCC1 (single isomer, unassigned) [Compound 1028, 3-cyclohexyl-6,7-difluoro-3-(4-hydroxyphenyl)indolin-2-one] — higher, > 500 nM

Source: patent publication US20100227863A1, “SUBSTITUTED 3-(4-HYDROXYPHENYL)-INDOLIN-2-ONE COMPOUNDS” (TOPOTARGET A/S, priority 2007, published 2010)
